# Measured values: patent US12187738B2, “Imidazolo derivatives, compositions and methods as orexin antagonists” (HAGER BIOSCIENCES, LLC, priority 2019, dated 2025)
# pIC50: −log10 of the molar value.
# Tests used:
# [1] = target: T1, human orexin-1 receptor (Homo sapiens, UniProt O43613); assay: Intracellular calcium measurement (FLIPR), orexin-1 receptor antagonism; format: cell-based; conditions: CHO cells expressing human orexin-1 receptor, 3 nM orexin-A agonist; for inhibition at 1 µM: 1 uM compound, read-out: % Inhibition of OX1R @ 1 uM compound; for pIC50: read-out: IC50 OX1R; for Kb: read-out: Kb OX1R
# T1 construct: expressed in transfected cells; host or cells: CHO cells (G418 selection)
# T1 sequence (O43613 1-425): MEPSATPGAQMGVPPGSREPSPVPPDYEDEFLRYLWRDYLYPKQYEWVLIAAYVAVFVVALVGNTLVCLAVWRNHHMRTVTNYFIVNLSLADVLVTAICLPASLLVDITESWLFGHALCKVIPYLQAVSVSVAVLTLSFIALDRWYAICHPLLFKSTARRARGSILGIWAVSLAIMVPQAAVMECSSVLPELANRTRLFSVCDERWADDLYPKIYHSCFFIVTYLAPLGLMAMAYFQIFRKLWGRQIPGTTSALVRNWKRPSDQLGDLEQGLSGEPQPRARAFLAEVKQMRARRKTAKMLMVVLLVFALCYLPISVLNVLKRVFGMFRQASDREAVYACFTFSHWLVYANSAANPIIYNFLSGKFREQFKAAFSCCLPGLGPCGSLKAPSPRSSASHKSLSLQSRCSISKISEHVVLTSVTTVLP
# Description: (§1) Antagonistic activities on both orexin receptors have been measured for each example compound using the following procedure:
# (§2) In Vitro Assay: Intracellular Calcium Measurements:
# (§3) Chinese hamster ovary (CHO) cells expressing the human orexin-1 receptor and the human orexin-2 receptor, respectively, are grown in culture medium (Ham F-12 with L-Glutamine) containing 300 μg/mL G418, 100 U/mL penicillin, 100 μg/mL streptomycin and 10% heat inactivated fetal calf serum (FCS). The cells are seeded at 20′000 cells/well into 384-well black clear bottom sterile plates (Greiner). The seeded plates are incubated overnight at 37° C. in 5% CO2. Human orexin-A as an agonist is prepared as 1 mM stock solution in MeOH:water (1:1), diluted in HBSS containing 0.1% bovine serum albumin (BSA), NaHCO 3: 0.375 g/L and 20 mM HEPES for use in the assay at a final concentration of 3 nM.
# (§4) Antagonists are prepared as 10 mM stock solution in DMSO, then diluted in 384-well plates using DMSO followed by a transfer of the dilutions into in HBSS containing 0.1% bovine serum albumin (BSA), NaHCO 3: 0.375 g/L and 20 mM HEPES. On the day of the assay, 50 μL of staining buffer (HBSS containing 1% FCS, 20 mM HEPES, NaHCO 3: 0.375 g/L, 5 mM probenecid (Sigma) and 3 μM of the fluorescent calcium indicator fluo-4 AM (1 mM stock solution in DMSO, containing 10% pluronic) is added to each well. The 384-well cell-plates are incubated for 50 min at 37° C. in 5% CO2 followed by equilibration at RT for 30 min before measurement.
# (§5) Within the Fluorescent Imaging Plate Reader (FLIPR Tetra, Molecular Devices), antagonists are added to the plate in a volume of 10 μL/well, incubated for 120 min and finally 10 μL/well of agonist is added. Fluorescence is measured for each well at 1 second intervals, and the height of each fluorescence peak is compared to the height of the fluorescence peak induced by 3 nM orexin-A with vehicle in place of antagonist. The IC50 value (the concentration of compound needed to inhibit 50% of the agonistic response) is determined and may be normalized using the obtained IC50 value of an on-plate reference compound. Optimized conditions were achieved by adjustment of pipetting speed and cell splitting regime. The calculated IC50 values may fluctuate depending on the daily cellular assay performance. Fluctuations of this kind are known to those skilled in the art. In the case where IC50 values have been determined several times for the same compound, the geometric mean has been given.
# [2] = target: T2, human orexin-2 receptor (Homo sapiens, UniProt O43614); assay: Intracellular calcium measurement (FLIPR), orexin-2 receptor antagonism; format: cell-based; conditions: CHO cells expressing human orexin-2 receptor, 3 nM orexin-A agonist; for inhibition at 1 µM: 1 uM compound, read-out: % Inhibition of OX2R @ 1 uM compound
# T2 construct: expressed in transfected cells; host or cells: CHO cells (G418 selection)
# T2 sequence (O43614 1-444): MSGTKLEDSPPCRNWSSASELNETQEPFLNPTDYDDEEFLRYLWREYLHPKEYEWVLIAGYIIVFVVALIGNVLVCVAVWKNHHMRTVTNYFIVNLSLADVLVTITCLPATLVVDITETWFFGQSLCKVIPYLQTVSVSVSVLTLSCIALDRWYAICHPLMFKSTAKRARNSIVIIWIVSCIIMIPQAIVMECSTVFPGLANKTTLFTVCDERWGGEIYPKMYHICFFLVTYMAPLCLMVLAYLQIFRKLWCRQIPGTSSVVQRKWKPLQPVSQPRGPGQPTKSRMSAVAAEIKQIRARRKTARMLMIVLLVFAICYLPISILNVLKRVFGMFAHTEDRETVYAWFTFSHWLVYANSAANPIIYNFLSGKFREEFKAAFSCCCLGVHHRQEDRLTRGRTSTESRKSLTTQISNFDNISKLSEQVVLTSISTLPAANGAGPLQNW
# Description: as §1, §2, §3, §4, §5
Structure (SMILES),inhibition at 1 µM [1] [%],inhibition at 1 µM [2] [%],pIC50 [1],Kb [1] [nM],pIC50 ([2]; read-out: IC50 OX2R),Kb ([2]; read-out: Kb OX2R) [nM]
CCc1cnc(NC[C@@H]2CCCN2C(=O)c2c(-c3ccccc3F)nc3sccn23)nc1 [Example 15],25.1,15.2,–,–,–,–
CCc1cnc(NC[C@@H]2[C@H](C)CCCN2C(=O)c2c(-c3ccccc3)nc3occn23)nc1 [Example 7],48.1,6.75,–,–,–,–
CCc1cnc(NC[C@@H]2[C@H](C)CCCN2C(=O)c2c(-c3ccccc3)nc3sccn23)nc1 [Example 10],63.5,9.37,6.57,57,–,–
O=C(c1c(-c2ccccc2)nc2sccn12)N1CCC[C@H]1CNc1ccc(C(F)(F)F)cn1 [Example 4],61.1,25.4,–,–,–,–
CCc1cnc(NC[C@@H]2CCCN2C(=O)c2c(-c3ccc(F)cc3)nc3sc(C)nn23)nc1 [Example 11],16.1,12,–,–,–,–
O=C(c1c(-c2ccccc2F)nc2sccn12)N1CCC[C@H]1CNc1ccc(C(F)(F)F)cn1 [Example 13],62.8,29,–,–,–,–
CCc1cnc(NC[C@@H]2CCCN2C(=O)c2c(-c3ccccc3)nc3sccn23)nc1 [Example 6],-5.39,16.2,–,–,–,–
C[C@@H]1CCCN(C(=O)c2c(-c3ccccc3)nc3sccn23)[C@@H]1CNc1ccc(C(F)(F)F)cn1 [Example 9],81.4,10.7,7.74,4,–,–
C[C@@H]1CCCN(C(=O)c2c(-c3ccccc3)nc3occn23)[C@@H]1CNc1ccc(C(F)(F)F)cn1 [Example 8],81.6,1.8,7.96,2,–,–
Cc1nn2c(C(=O)N3CCC[C@@H](C)[C@H]3CNc3ccc(C(F)(F)F)cn3)c(-c3ccc(F)cc3)nc2s1 [Example 12],79.8,11.8,7.89,3,–,–

# Further lines, results first:
inhibition at 1 µM [1] [%],inhibition at 1 µM [2] [%],pIC50 [1],Kb [1] [nM],pIC50 ([2]; read-out: IC50 OX2R),Kb ([2]; read-out: Kb OX2R) [nM],Structure (SMILES)
87.4,57,7.92,3,5.76,241,O=C(c1c(-c2ccccc2F)nc2sccn12)N1CCC[C@H]1Cn1ccc(-c2ccccc2)n1 [Example 14]
45.8,14.4,–,–,–,–,O=C(c1c(-c2ccccc2)nc2occn12)N1CCC[C@H]1CNc1ccc(C(F)(F)F)cn1 [Example 3]
90.3,34.4,8.15,1.5,–,–,O=C(c1c(-c2ccc(F)cc2)nc2scnn12)N1CCC[C@H]1Cn1ccc(-c2ccccc2)n1 [Example 16]
70.4,26.6,–,–,–,–,O=C(c1c(-c2ccccc2)nc2occn12)N1CCC[C@H]1Cn1ccc(-c2ccccc2)n1 [Example 1]
4.5,8.06,–,–,–,–,CCc1cnc(OC[C@@H]2CCCN2C(=O)c2c(-c3ccccc3)nc3occn23)nc1 [Example 17]
37.1,14.9,–,–,–,–,O=C(c1c(-c2ccccc2)nc2occn12)N1CCC[C@H]1COc1ccc(C(F)(F)F)cn1 [Example 18]
83,39.9,–,–,–,–,O=C(c1c(-c2ccccc2)nc2sccn12)N1CCC[C@H]1Cn1ccc(-c2ccccc2)n1 [Example 2]
0.5,3.3,–,–,–,–,CCc1cnc(NC[C@@H]2CCCN2C(=O)c2c(-c3ccccc3)nc3occn23)nc1 [Example 5]
